In article PMC11243693, “Synthesis and Biological Evaluation of New Compounds with Nitroimidazole Moiety” (Molecules, 2024):

Experiments:
[1] = system: Candida tropicalis ATCC 1369; assay: Broth microdilution, C. tropicalis ATCC 1369; type: cell-based; details: Ct 1369; for MFC/MIC Ratio: <4 fungicidal, ≥4 fungistatic
Protocol: (§1) The antibacterial activity of the obtained thiosemicarbazides and hydrazide–hydrazones was determined by evaluating their ability to inhibit microbial growth in vitro using the broth microdilution method, according to the guidelines of the European Committee on Antimicrobial Susceptibility Testing (EUCAST). The method involved the preparation of microbial suspensions with a standardized density of 0.5 on the McFarland scale (equivalent to 1.5 × 10^8 colony-forming units/mL for bacteria and […] for fungi). A solution of the test substances was then prepared (initial concentration 1000 µg/mL, diluted in sterile Mueller-Hinton broth for bacteria or Mueller-Hinton with 2% glucose for fungi). The test was carried out in 96-well polystyrene flat-bottom plates (Medlab, Poland) with 100 µL of appropriate sterile microbiological medium in each well. The first wells were filled with 200 µL of the test substance, diluted to the initial concentration, and then double-decreasing dilutions were made under aseptic conditions using an automatic pipette. The final step was the addition of a 10-fold diluted microbial suspension of 2 µL. At the same time, the following controls were included: (a) medium control (100 µL of sterile medium without microorganisms added), (b) microbial viability control, (c) test substance control (dilutions without added micro-organisms), (d) positive control of the drug used in the clinic. The plates thus prepared were incubated for 18 ± 2 h at 35 ± 2 °C under conditions optimal for the growth of the test microorganisms. After incubation, the spectrophotometric absorbance at 570 nm in each well of the plate was read. The aim of this part of the study was to determine two parameters: the minimum inhibitory concentration (MIC) and the minimum bactericidal or fungicidal concentration (MBC/MFC) of the test compound. […] The MBC value was determined by adding 5 µL of the contents of each well of the plate to solid sterile MHA or MHA + 2%glc medium for bacteria and fungi, respectively. The area on the plate where 99.9% inhibition of microbial growth was observed indicated the lethal concentration. In addition, the quotient MBC(MFC)/MIC could be determined to assess the nature of the activity of the test substance. If MBC(MFC)/MIC was <4, the test substance was bactericidal/fungicidal, whereas if MBC(MFC)/MIC was ≥4, it was bacteriostatic/fungistatic. Amoxicillin (Glentham Life Sciences, USA) and nystatin (Glentham Life Sciences, USA) were used as the controls for this assay.
(§2) The test was performed either on bacteria, comprising: Gram-positive (Staphylococcus aureus ATCC 25923, Staphylococcus aureus ATCC 6538, Staphylococcus aureus ATCC 43300 methicillin-resistant MRSA, Staphylococcus epidermidis ATCC 12228, Micrococcus luteus ATCC 10240, Bacillus subtilis ATCC 6633, Bacillus cereus ATCC 10876) and Gram-negative (Escherichia coli ATCC 25922, Pseudomonas aeruginosa ATCC 27853, Proteus mirabilis ATCC 12453, Klebsiella pneumoniae ATCC 13883) or yeast (Candida parapsilosis ATCC 22019, Candida glabrata ATCC 90030, Candida krusei ATCC 14243, Candida glabrata ATCC 15126, Candida tropicalis ATCC 1369, Candida auris CDC B11903, Candida lusitaniae ATCC 3449) reference strains from the American Type Culture Collection (ATCC) or the Centers for Disease Control and Prevention (CDC).

[2] = system: Candida parapsilosis ATCC 22019; assay: Broth microdilution, C. parapsilosis ATCC 22019; type: cell-based; details: Cp 22019
Protocol: as §1, §2

[3] = system: Staphylococcus epidermidis ATCC 12228; assay: Broth microdilution, S. epidermidis ATCC 12228; type: cell-based; details: Se 12228; for MBC/MIC Ratio: <4 bactericidal, ≥4 bacteriostatic
Protocol: as §1, §2

Candida auris CDC B11903 = assay: Broth microdilution, C. auris CDC B11903; type: cell-based; details: Ca B11903
Protocol: as §1, §2

[4] = system: Candida glabrata ATCC 15126; assay: Broth microdilution, C. glabrata ATCC 15126; type: cell-based; details: Cg 15126
Protocol: as §1, §2

[5] = system: Candida glabrata ATCC 90030; assay: Broth microdilution, C. glabrata ATCC 90030; type: cell-based; details: Cg 90030
Protocol: as §1, §2

[6] = system: Staphylococcus aureus ATCC 43300 methicillin-resistant MRSA; assay: Broth microdilution, S. aureus ATCC 43300 MRSA; type: cell-based; details: Sa 43300 MRSA
Protocol: as §1, §2

[7] = system: Micrococcus luteus ATCC 10240; assay: Broth microdilution, M. luteus ATCC 10240; type: cell-based; details: Ml 10240; for MBC/MIC Ratio: <4 bactericidal, ≥4 bacteriostatic
Protocol: as §1, §2

[8] = system: Candida lusitaniae ATCC 3449; assay: Broth microdilution, C. lusitaniae ATCC 3449; type: cell-based; details: Cl 3449
Protocol: as §1, §2

[9] = system: Staphylococcus aureus ATCC 6538; assay: Broth microdilution, S. aureus ATCC 6538; type: cell-based; details: Sa 6538
Protocol: as §1, §2

[10] = system: Bacillus cereus ATCC 10876; assay: Broth microdilution, B. cereus ATCC 10876; type: cell-based; details: Bc 10876; for MBC/MIC Ratio: <4 bactericidal, ≥4 bacteriostatic
Protocol: as §1, §2

[11] = system: Staphylococcus aureus ATCC 25923; assay: Broth microdilution, S. aureus ATCC 25923; type: cell-based; details: Sa 25923
Protocol: as §1, §2

Candida spp. = assay: Broth microdilution, Candida spp.; type: cell-based; details: for MBC (range, C. parapsilosis ATCC 22019 and C. tropicalis ATCC 1369) / MIC (range, C. parapsilosis ATCC 22019 and C. tropicalis ATCC 1369): range over both strains and the listed compounds
Protocol: as §1, §2

[12] = system: Candida krusei ATCC 14243; assay: Broth microdilution, C. krusei ATCC 14243; type: cell-based; details: Ck 14243
Protocol: as §1, §2

[13] = system: Bacillus subtilis ATCC 6633; assay: Broth microdilution, B. subtilis ATCC 6633; type: cell-based; details: Bs 6633; for MBC/MIC Ratio: <4 bactericidal, ≥4 bacteriostatic
Protocol: as §1, §2

Cn1cc([N+](=O)[O-])nc1C(=O)NNC(=S)Nc1ccccc1Cl [Compound 3]
1000 µg/mL: MIC [6] | MIC [10]
62.5 to 1000 µg/mL: MIC (range, C. parapsilosis ATCC 22019 and C. tropicalis ATCC 1369) (Candida spp.)
500 µg/mL: MFC [1] | MBC [3] | MIC [9]
>1000 µg/mL: MFC [2] | MIC (Candida auris CDC B11903) | MIC [4] | MIC [5] | MBC [6] | MIC [8] | MBC [9] | MBC [10] | MBC [11] | MIC [12]
2: MFC/MIC Ratio [1] | MBC/MIC Ratio [3]
1: MBC/MIC Ratio [7] | MBC/MIC Ratio [13]
500 to 1000 µg/mL: MBC (range, C. parapsilosis ATCC 22019 and C. tropicalis ATCC 1369) (Candida spp.)
250 µg/mL: MIC [1] | MIC [2] | MIC [3] | MBC [7] | MIC [7] | MIC [11]
125 µg/mL: MBC [13] | MIC [13]

Cn1cc([N+](=O)[O-])nc1C(=O)NNC(=S)Nc1cccc(Cl)c1 [Compound 4]
62.5 µg/mL: MIC [2] | MIC [11] | MBC [13] | MIC [13]
1: MBC/MIC Ratio [3] | MBC/MIC Ratio [13]
>1000 µg/mL: MFC [2] | MIC (Candida auris CDC B11903) | MIC [4] | MIC [5] | MBC [6] | MIC [8] | MBC [9] | MBC [10] | MBC [11] | MIC [12]
250 µg/mL: MIC [1] | MIC [9] | MIC [10]
125 µg/mL: MBC [3] | MIC [3] | MIC [7]
500 µg/mL: MFC [1] | MIC [6] | MBC [7]
4: MBC/MIC Ratio [7]
500 to 1000 µg/mL: MBC (range, C. parapsilosis ATCC 22019 and C. tropicalis ATCC 1369) (Candida spp.)
62.5 to 1000 µg/mL: MIC (range, C. parapsilosis ATCC 22019 and C. tropicalis ATCC 1369) (Candida spp.)
2: MFC/MIC Ratio [1]

COc1ccccc1NC(=S)NNC(=O)c1nc([N+](=O)[O-])cn1C [Compound 9]
62.5 to 1000 µg/mL: MIC (range, C. parapsilosis ATCC 22019 and C. tropicalis ATCC 1369) (Candida spp.)
2: MFC/MIC Ratio [1] | MFC/MIC Ratio ([2]; <4 fungicidal, ≥4 fungistatic)
1000 µg/mL: MFC [1] | MFC [2] | MIC [6] | MIC [9] | MIC [10]
1: MBC/MIC Ratio [13]
>1000 µg/mL: MBC [3] | MIC (Candida auris CDC B11903) | MIC [4] | MIC [5] | MBC [6] | MBC [7] | MIC [8] | MBC [9] | MBC [10] | MBC [11] | MIC [12]
500 to 1000 µg/mL: MBC (range, C. parapsilosis ATCC 22019 and C. tropicalis ATCC 1369) (Candida spp.)
500 µg/mL: MIC [1] | MIC [2] | MIC [3] | MIC [7] | MIC [11] | MBC [13] | MIC [13]

COc1cccc(NC(=S)NNC(=O)c2nc([N+](=O)[O-])cn2C)c1 [Compound 10]
500 µg/mL: MBC [3] | MIC [3] | MIC [6] | MIC [10] | MBC [13]
62.5 to 1000 µg/mL: MIC (range, C. parapsilosis ATCC 22019 and C. tropicalis ATCC 1369) (Candida spp.)
250 µg/mL: MIC [1] | MIC [2] | MBC [7] | MIC [7] | MIC [11]
>1000 µg/mL: MFC [2] | MIC (Candida auris CDC B11903) | MIC [4] | MIC [5] | MBC [6] | MIC [8] | MBC [9] | MBC [11] | MIC [12]
2: MBC/MIC Ratio [10]
500 to 1000 µg/mL: MBC (range, C. parapsilosis ATCC 22019 and C. tropicalis ATCC 1369) (Candida spp.)
fungistatic activity: antifungal activity towards tested Candida strains (Candida spp.; in words)
1000 µg/mL: MFC [1] | MIC [9] | MBC [10]
4: MFC/MIC Ratio [1] | MBC/MIC Ratio [13]
1: MBC/MIC Ratio [3] | MBC/MIC Ratio [7]
125 µg/mL: MIC [13]

Cn1cc([N+](=O)[O-])nc1C(=O)NNC(=S)Nc1ccccc1C(F)(F)F [Compound 12]
>1000 µg/mL: MFC [2] | MIC (Candida auris CDC B11903) | MIC [4] | MIC [5] | MBC [6] | MIC [8] | MBC [9] | MBC [11] | MIC [12]
62.5 to 1000 µg/mL: MIC (range, C. parapsilosis ATCC 22019 and C. tropicalis ATCC 1369) (Candida spp.)
2: MFC/MIC Ratio [1] | MBC/MIC Ratio [7]
1000 µg/mL: MFC [1] | MIC [6]
500 to 1000 µg/mL: MBC (range, C. parapsilosis ATCC 22019 and C. tropicalis ATCC 1369) (Candida spp.)
1: MBC/MIC Ratio [3] | MBC/MIC Ratio [10] | MBC/MIC Ratio [13]
125 µg/mL: MIC [2]
500 µg/mL: MIC [1] | MBC [3] | MIC [3] | MBC [7] | MIC [9] | MBC [10] | MIC [10]
250 µg/mL: MIC [7] | MIC [11] | MBC [13] | MIC [13]

Cn1cc([N+](=O)[O-])nc1C(=O)NN=Cc1cccc(Cl)c1F [Compound 28, N’-[(3-chloro-2-fluorophenyl)methylidene]-1-methyl-4-nitro-1H-imidazole-2-carbohydrazide]
252 to 255 °C: melting point

COc1cc(Cl)ccc1C=NNC(=O)c1nc([N+](=O)[O-])cn1C [Compound 29, N’-[(4-chloro-2-methoxyphenyl)methylidene]-1-methyl-4-nitro-1H-imidazole-2-carbohydrazide]
234 to 237 °C: melting point
